Assay results published in patent US10376520B2, “Methods for the treatment of cardiovascular disorders” (Galapagos NV, priority 2015, dated 2019).

Assays:
Assay type in all cases: in vivo, human
RA patients [1] = assay: Plasma PCSK9 concentration (ELISA), Study 4; conditions: for PCSK9 level, 4 weeks CFB: 4 weeks change from baseline
Protocol: (§1) Randomized double-blind, placebo-controlled add on study in subjects with active RA who have an inadequate response to MTX monotherapy, in combination with methotrexate, administered for 4 weeks in the treatment of subjects with active rheumatoid arthritis who have an inadequate response to methotrexate alone.
(§2) Compound 1 (dosed as a [Compound 1:HCl:3H2O]) capsules administered orally in 30 mg, 75 mg, 150 mg, or 300 mg doses per day for 4 weeks.
Plasma PCSK9 concentration was determined using a commercial available ELISA kit from R&D systems (614 McKinley Place NE, Minneapolis, Minn. 55413, USA) according to manufacturer's instruction. Catalogue number DPC900, lot number used: 321050.

RA patients [2] = assay: Plasma ApoC-II concentration (ELISA), Study 4; conditions: 4 weeks change from baseline
Protocol: as §1, §2
Plasma ApoC-II and ApoC-III concentrations are determined using commercial available ELISA kits from Abnova (9th Floor, No. 108, Jhouzih St., Neihu District. Taipei City, 114, Taiwan) according to manufacturer's instruction. apoC2: catalogue number KA0464, lot number used: 08871403. apoC3: catalogue number KA0465, lot number used: 02961525.

RA patients [3] = assay: Triglycerides level (Selectra autoanalyzer), Study 4; conditions: for Triglycerides level, 4 weeks CFB: 4 weeks change from baseline
Protocol: as §1, §2
Triglycerides, [HDL] cholesterol, and plasma cholesterol were measured on the Selectra autoanalyzer (Sopachem BV, 44-RI Straat 33, 4051 AP Ochten, The Netherlands). All assays were commercially available from DiaSys Diagnostic Systems GmbH, Alte Strasse 9, 65558 Holzheim, Germany.

[4] = system: Subjects With Active Crohn's Disease; assay: Atherogenic index, Study 5 (Crohn's disease); conditions: for Atherogenic index Mean CFB - 10 weeks results / Atherogenic index Mean percentage CFB - 10 weeks results / Atherogenic index Median CFB - 10 weeks results: 200 mg q.d.
Description: As used herein, the term ‘atherogenic index’ refers to
This is a double-blind, randomized, placebo-controlled, multi-centre Phase 2 study to investigate the efficacy and safety of Compound 1 administered once daily for the treatment of active CD with evidence of mucosal ulceration. The pharmacokinetics (including a PK substudy) and pharmacodynamics of Compound 1 and metabolite in CD will also be characterised.
A total of 180 eligible subjects will be randomized to receive Compound 1 or placebo in addition to their stable background treatment (eg, corticosteroids, aminosalicylates, or CD-related antibiotics). The study will consist of 2 parts, with total treatment duration of 20 weeks. Randomization in Part 1 will be stratified according the subject's previous anti-TNF exposure/response, CRP level at Screening, and oral corticosteroid use at visit Day −1.
After the first 10 weeks of treatment in Part 1, patients will be re-randomized for Part 2 as shown in the diagram below and will be stratified according to the subject's clinical response, previous anti-TNF exposure/response, and oral corticosteroid use at visit Day −1.
The atherogenic index has been identified to be a good predictor of cardiovascular disorders risks and is calculated as follows: […]

RA patients [5] = assay: Plasma CETP concentration (ELISA), Study 4; conditions: for CETP level, 4 weeks CFB: 4 weeks change from baseline
Protocol: as §1, §2
Plasma CETP concentration was determined using a commercial available ELISA kit from Alpco (26-G Keewaydin Drive, Salem, N.H. 03079 USA) according to manufacturer's instruction. Catalogue number 47-CETH-E01, lot number used: 812RCL.

[6] = 200 mg q.d. continued week 10 to 20, week 2
[7] = 200 mg q.d. continued week 10 to 20, week 4
[8] = 200 mg q.d. continued week 10 to 20, week 6
[9] = 200 mg q.d. continued week 10 to 20, week 10
[10] = 200 mg q.d. continued week 10 to 20, week 12
[11] = 200 mg q.d. continued week 10 to 20, week 16
[12] = 200 mg q.d. continued week 10 to 20, week 20
[13] = 200 mg q.d. week 0 to 10, to 100 mg q.d. week 10 to 20, week 2
[14] = 200 mg q.d. week 0 to 10, to 100 mg q.d. week 10 to 20, week 4
[15] = 200 mg q.d. week 0 to 10, to 100 mg q.d. week 10 to 20, week 6
[16] = 200 mg q.d. week 0 to 10, to 100 mg q.d. week 10 to 20, week 10
[17] = 200 mg q.d. week 0 to 10, to 100 mg q.d. week 10 to 20, week 12
[18] = 200 mg q.d. week 0 to 10, to 100 mg q.d. week 10 to 20, week 16
[19] = 200 mg q.d. week 0 to 10, to 100 mg q.d. week 10 to 20, week 20
[20] = 200 mg q.d. week 0 to 10, to placebo week 10 to 20, week 2
[21] = 200 mg q.d. week 0 to 10, to placebo week 10 to 20, week 4
[22] = 200 mg q.d. week 0 to 10, to placebo week 10 to 20, week 6
[23] = 200 mg q.d. week 0 to 10, to placebo week 10 to 20, week 10
[24] = 200 mg q.d. week 0 to 10, to placebo week 10 to 20, week 12
[25] = 200 mg q.d. week 0 to 10, to placebo week 10 to 20, week 16
[26] = 200 mg q.d. week 0 to 10, to placebo week 10 to 20, week 20
[27] = placebo week 0 to 10, to 100 mg q.d. week 10 to 20, week 12
[28] = placebo week 0 to 10, to 100 mg q.d. week 10 to 20, week 16
[29] = placebo week 0 to 10, to 100 mg q.d. week 10 to 20, week 20

## O=C(Nc1nc2cccc(-c3ccc(CN4CCS(=O)(=O)CC4)cc3)n2n1)C1CC1 [Compound 1, cyclopropanecarboxylic acid {5-[4-(1,1-dioxo-thiomorpholin-4-ylmethyl)-phenyl]-[1,2,4]triazolo[1,5-a]pyridin-2yl}-amide]
RA patients [1]; 30 mg q.d.
  PCSK9 level, 4 weeks CFB: 6.8%
  PCSK9 level, Baseline: 282.1 ng/mL
  PCSK9 level, week 4: 296.9 ng/mL
RA patients [1]; 75 mg q.d.
  PCSK9 level, 4 weeks CFB: 11.4%
  PCSK9 level, Baseline: 277.0 ng/mL
  PCSK9 level, week 4: 292.4 ng/mL
RA patients [1]; 150 mg q.d.
  PCSK9 level, 4 weeks CFB: 11.6%
  PCSK9 level, Baseline: 264.4 ng/mL
  PCSK9 level, week 4: 294.6 ng/mL
RA patients [1]; 300 mg q.d.
  PCSK9 level, 4 weeks CFB: 10.4%
  PCSK9 level, Baseline: 261.7 ng/mL
  PCSK9 level, week 4: 291.2 ng/mL
RA patients [2]; 30 mg q.d.
  ApoC-II level, 4 weeks CFB: 11.2%
RA patients [2]; 75 mg q.d.
  ApoC-II level, 4 weeks CFB: 23.3%
RA patients [2]; 150 mg q.d.
  ApoC-II level, 4 weeks CFB: 8.6%
RA patients [2]; 300 mg q.d.
  ApoC-II level, 4 weeks CFB: 37.0%
RA patients [3]; 30 mg q.d.
  Triglycerides level, 4 weeks CFB: 51.7%
  Triglycerides level, Baseline: 1.2 mM
  Triglycerides level, week 4: 1.7 mM
RA patients [3]; 75 mg q.d.
  Triglycerides level, 4 weeks CFB: 6.6%
  Triglycerides level, Baseline: 1 mM
  Triglycerides level, week 4: 1.1 mM
RA patients [3]; 150 mg q.d.
  Triglycerides level, 4 weeks CFB: 93.6%
  Triglycerides level, Baseline: 1.4 mM
  Triglycerides level, week 4: 2.1 mM
RA patients [3]; 300 mg q.d.
  Triglycerides level, 4 weeks CFB: 23.3%
  Triglycerides level, Baseline: 1.3 mM
  Triglycerides level, week 4: 1.4 mM
[4]; [6]
  Atherogenic index Mean percentage CFB - 20 weeks results: −6.93%
  Atherogenic index Median CFB - 20 weeks results: -0.25 mmol/L
[4]; [7]
  Atherogenic index Mean percentage CFB - 20 weeks results: −6.67%
  Atherogenic index Median CFB - 20 weeks results: -0.21 mmol/L
[4]; [8]
  Atherogenic index Mean percentage CFB - 20 weeks results: −8.51%
  Atherogenic index Median CFB - 20 weeks results: -0.22 mmol/L
[4]; [9]
  Atherogenic index Mean percentage CFB - 20 weeks results: −3.49%
  Atherogenic index Median CFB - 20 weeks results: -0.13 mmol/L
[4]; [10]
  Atherogenic index Mean percentage CFB - 20 weeks results: −1.27%
  Atherogenic index Median CFB - 20 weeks results: -0.13 mmol/L
[4]; [11]
  Atherogenic index Mean percentage CFB - 20 weeks results: −0.22%
  Atherogenic index Median CFB - 20 weeks results: -0.06 mmol/L
[4]; [12]
  Atherogenic index Mean percentage CFB - 20 weeks results: 3.38%
  Atherogenic index Median CFB - 20 weeks results: 0.01 mmol/L
[4]; [13]
  Atherogenic index Mean percentage CFB - 20 weeks results: −12.02%
  Atherogenic index Median CFB - 20 weeks results: -0.37 mmol/L
[4]; [14]
  Atherogenic index Mean percentage CFB - 20 weeks results: −12.95%
  Atherogenic index Median CFB - 20 weeks results: -0.38 mmol/L
[4]; [15]
  Atherogenic index Mean percentage CFB - 20 weeks results: −13.82%
  Atherogenic index Median CFB - 20 weeks results: -0.48 mmol/L
[4]; [16]
  Atherogenic index Mean percentage CFB - 20 weeks results: −11.54%
  Atherogenic index Median CFB - 20 weeks results: -0.48 mmol/L
[4]; [17]
  Atherogenic index Mean percentage CFB - 20 weeks results: −5.12%
  Atherogenic index Median CFB - 20 weeks results: -0.25 mmol/L
[4]; [18]
  Atherogenic index Mean percentage CFB - 20 weeks results: −4.54%
  Atherogenic index Median CFB - 20 weeks results: -0.15 mmol/L
[4]; [19]
  Atherogenic index Mean percentage CFB - 20 weeks results: −8.14%
  Atherogenic index Median CFB - 20 weeks results: -0.39 mmol/L
[4]; [20]
  Atherogenic index Mean percentage CFB - 20 weeks results: −7.38%
  Atherogenic index Median CFB - 20 weeks results: -0.31 mmol/L
[4]; [21]
  Atherogenic index Mean percentage CFB - 20 weeks results: −10.10%
  Atherogenic index Median CFB - 20 weeks results: -0.29 mmol/L
[4]; [22]
  Atherogenic index Mean percentage CFB - 20 weeks results: −2.55%
  Atherogenic index Median CFB - 20 weeks results: -0.14 mmol/L
[4]; [23]
  Atherogenic index Mean percentage CFB - 20 weeks results: −5.14%
  Atherogenic index Median CFB - 20 weeks results: -0.19 mmol/L
[4]; [24]
  Atherogenic index Mean percentage CFB - 20 weeks results: 9.34%
  Atherogenic index Median CFB - 20 weeks results: 0.14 mmol/L
[4]; [25]
  Atherogenic index Mean percentage CFB - 20 weeks results: 19.14%
  Atherogenic index Median CFB - 20 weeks results: 0.35 mmol/L
[4]; [26]
  Atherogenic index Mean percentage CFB - 20 weeks results: 19.82%
  Atherogenic index Median CFB - 20 weeks results: 0.38 mmol/L
[4]; week 2
  Atherogenic index Mean CFB - 10 weeks results: -0.31 mmol/L
  Atherogenic index Mean percentage CFB - 10 weeks results: −8.20%
  Atherogenic index Median CFB - 10 weeks results: -0.31 mmol/L
[4]; week 4
  Atherogenic index Mean CFB - 10 weeks results: -0.33 mmol/L
  Atherogenic index Mean percentage CFB - 10 weeks results: −8.79%
  Atherogenic index Median CFB - 10 weeks results: -0.28 mmol/L
[4]; week 6
  Atherogenic index Mean CFB - 10 weeks results: -0.32 mmol/L
  Atherogenic index Mean percentage CFB - 10 weeks results: −8.69%
  Atherogenic index Median CFB - 10 weeks results: -0.29 mmol/L
[4]; week 10
  Atherogenic index Mean CFB - 10 weeks results: -0.25 mmol/L
  Atherogenic index Mean percentage CFB - 10 weeks results: −5.98%
  Atherogenic index Median CFB - 10 weeks results: -0.21 mmol/L
[4]; [27]
  Atherogenic index Mean percentage CFB - 20 weeks results: 0.84%
  Atherogenic index Median CFB - 20 weeks results: -0.10 mmol/L
[4]; [28]
  Atherogenic index Mean percentage CFB - 20 weeks results: −0.97%
  Atherogenic index Median CFB - 20 weeks results: -0.25 mmol/L
[4]; [29]
  Atherogenic index Mean percentage CFB - 20 weeks results: 3.17%
  Atherogenic index Median CFB - 20 weeks results: -0.10 mmol/L
RA patients [5]; 30 mg q.d.
  CETP level, 4 weeks CFB: 2.4%
  CETP level, Baseline: 3.2 µg/mL
  CETP level, week 4: 3.2 µg/mL
RA patients [5]; 75 mg q.d.
  CETP level, 4 weeks CFB: −2.8%
  CETP level, Baseline: 2.8 µg/mL
  CETP level, week 4: 2.7 µg/mL
RA patients [5]; 150 mg q.d.
  CETP level, 4 weeks CFB: −11.4%
  CETP level, Baseline: 2.8 µg/mL
  CETP level, week 4: 2.3 µg/mL
RA patients [5]; 300 mg q.d.
  CETP level, 4 weeks CFB: −10.2%
  CETP level, Baseline: 2.5 µg/mL
  CETP level, week 4: 2.2 µg/mL
